Test results: US20220226340A1, “CASEIN KINASE 1 INHIBITORS FOR USE IN THE TREATMENT OF DISEASES RELATED TO DUX4 EXPRESSION SUCH AS MUSCULAR DYSTROPHY AND CANCER” (Facio Intellectual Property B.V., priority 2019, published 2022)
Read-outs that look alike come from different tables or passages of the source. One block for each molecule: values may come before it.

Tests used:
CK1α = CK1α (Homo sapiens, UniProt P48729); assay: CK1α inhibition IC50; assay type: biochemical
DUX4 = assay: high-content immunocytochemistry assay of endogenous DUX4 expression in differentiating primary FSHD myotubes; assay type: cell-based, human; conditions: for EC50: Homo sapiens, Myotube
Excerpt: (§1) A quantitative assay readout was developed based on script-based image analysis. […] To analyse the images, an automated script was developed, enabling the detection of nuclei, myotube borders and DUX4 signals, with the script also detecting artefacts to reduce false positive signals. The script enabled multiple validated readouts including the number of DUX4 positive nuclei and nuclei clusters, the fusion index, myotube area, myotube width and myotube skeleton length (see FIG. 2). Additionally, the total nuclei count was included as a measure of cell loss or compound toxicity.
A compound library containing approximately 5000 annotated compounds was screened in the high-content assay. For this purpose, primary myoblasts were seeded in 384 well plates after which the growth medium was replaced with differentiation medium. After 3 days of differentiation, cells were treated with library compounds (in duplicate on different screening plates) for 15 h, after which they were fixed and stained with antibodies against DUX4, antibodies against myosin heavy chain (MHC), and with DAPI (4′,6-diamidino-2-phenylindole). Script-based analysis provided readouts for DUX4 expression (count of DUX4-positive nuclei or DUX4 intensity) and for potential toxicity (fusion index and nuclei count).
Compounds were incubated with primary FSHD cells for 15 hours, as indicated by the arrow in FIG. 4A.
(§2) Compounds are administered either 15 h before fixation, resembling the original screening protocol, or 72 h before fixation (grey arrow). In the latter case, compounds are present during the whole differentiation process.

CK1δ = CK1δ (Homo sapiens, UniProt P48730); assay: CK1δ inhibition IC50; assay type: biochemical
primary FSHD cells = assay: fusion index (myotube fusion) readout of the high-content assay in primary FSHD cells; assay type: cell-based, human; conditions: for effect on fusion index / myotube fusion: 72 h treatment, compound present during whole differentiation
Excerpt: as §1, §2

p38α = p38α (Homo sapiens, UniProt Q16539); assay: p38α inhibition IC50; assay type: biochemical
CK1ε = CK1ε (Homo sapiens, UniProt P49674); assay: CK1ε inhibition IC50; assay type: biochemical; conditions: read-out: CK1 e IC50
[1] = Table 7, p38 compounds, read-out: IC50 CK1a
[2] = 15 h, read-out: EC50 for DUX4 repression
[3] = Table 7, p38 compounds, read-out: IC50 p38
[4] = 72 h, Table 4, 72 h treatment protocol, read-out: DUX4 EC50
[5] = 72 h, Table 6, 72 h treatment protocol, read-out: DUX4 EC50

Sequence of CK1ε (P49674 whole entry): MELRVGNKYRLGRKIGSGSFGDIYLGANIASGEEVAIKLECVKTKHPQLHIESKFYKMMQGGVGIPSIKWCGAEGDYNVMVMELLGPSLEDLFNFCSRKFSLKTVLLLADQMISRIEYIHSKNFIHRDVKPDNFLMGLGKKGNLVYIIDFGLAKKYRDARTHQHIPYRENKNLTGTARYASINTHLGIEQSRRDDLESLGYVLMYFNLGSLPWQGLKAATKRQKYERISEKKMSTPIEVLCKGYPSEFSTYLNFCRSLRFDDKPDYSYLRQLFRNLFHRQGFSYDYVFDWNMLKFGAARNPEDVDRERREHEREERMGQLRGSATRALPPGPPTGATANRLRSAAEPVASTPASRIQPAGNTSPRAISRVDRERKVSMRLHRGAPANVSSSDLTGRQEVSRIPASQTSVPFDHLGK
Sequence of p38α (Q16539 whole entry): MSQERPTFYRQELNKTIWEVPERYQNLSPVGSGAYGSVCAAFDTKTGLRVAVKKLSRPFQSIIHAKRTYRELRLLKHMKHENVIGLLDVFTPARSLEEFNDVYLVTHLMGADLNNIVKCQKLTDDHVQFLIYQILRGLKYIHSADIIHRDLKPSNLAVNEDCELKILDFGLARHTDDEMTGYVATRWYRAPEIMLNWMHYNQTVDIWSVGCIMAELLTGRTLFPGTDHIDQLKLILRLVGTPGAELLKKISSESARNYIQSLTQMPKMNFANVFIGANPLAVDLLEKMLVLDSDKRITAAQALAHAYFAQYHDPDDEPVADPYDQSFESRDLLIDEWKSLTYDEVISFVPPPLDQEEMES
Sequence of CK1α (P48729 whole entry): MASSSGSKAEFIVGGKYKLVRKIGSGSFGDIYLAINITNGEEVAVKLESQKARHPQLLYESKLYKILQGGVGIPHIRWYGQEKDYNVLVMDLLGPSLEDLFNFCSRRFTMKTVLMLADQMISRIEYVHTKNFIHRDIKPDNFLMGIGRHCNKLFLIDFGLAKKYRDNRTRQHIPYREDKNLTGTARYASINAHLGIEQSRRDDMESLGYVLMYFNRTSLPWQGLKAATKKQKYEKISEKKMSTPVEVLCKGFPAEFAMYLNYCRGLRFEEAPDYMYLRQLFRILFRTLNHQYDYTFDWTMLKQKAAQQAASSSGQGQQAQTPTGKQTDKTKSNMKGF
Sequence of CK1δ (P48730 whole entry, the tested form may be a part): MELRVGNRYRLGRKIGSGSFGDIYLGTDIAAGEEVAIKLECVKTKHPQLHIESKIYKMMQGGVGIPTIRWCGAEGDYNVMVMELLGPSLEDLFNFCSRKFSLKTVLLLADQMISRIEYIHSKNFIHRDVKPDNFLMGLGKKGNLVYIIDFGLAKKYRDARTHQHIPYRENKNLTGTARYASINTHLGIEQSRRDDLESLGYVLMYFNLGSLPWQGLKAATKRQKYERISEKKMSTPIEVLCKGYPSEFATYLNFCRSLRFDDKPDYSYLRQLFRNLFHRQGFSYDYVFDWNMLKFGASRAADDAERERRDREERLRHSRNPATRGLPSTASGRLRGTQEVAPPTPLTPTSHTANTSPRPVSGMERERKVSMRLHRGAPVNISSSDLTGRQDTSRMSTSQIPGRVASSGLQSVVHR

Compound: Cc1ccc(-n2nc(C(C)(C)C)cc2NC(=O)NCc2cc(F)ccc2Oc2ccc3c(cnn3CCO)c2)cc1 [pexmetinib, reference compound]
- IC50 (CK1α; [1]): > 10000 nM

Compound: CNCc1cc(-c2cn(C)nc2-c2ccc(F)cc2)ccn1 [Nr. 9]
- EC50 (DUX4; [2]): 3100 to 5500 nM
- EC50 (DUX4; 72 h, read-out: DUX4 EC50): 6400 nM
- IC50 (CK1δ; Table 6, read-out: IC50 CK1δ): 58 nM

Compound: CN1Cc2nccc(-c3cn(C)nc3-c3ccc(F)cc3)c2C1=O [Nr. 5]
- myotube formation in the presence of increasing concentrations of losmapimod (primary FSHD cells; 72 h, CK1 inhibitor combined with losmapimod, microscopic images): myotube formation is still intact
- EC50 (DUX4; 15 h, read-out: DUX4 EC50): 1890 nM
- EC50 (DUX4; [2]): 1900 to 3100 nM
- EC50 (DUX4; 72 h, read-out: DUX4 EC50): 6700 nM

Compound: Cc1ccc(C(=O)NC2CC2)cc1-n1ncc(C(=O)c2cccc(C#N)c2)c1N [Acumapimod, reference compound]
- IC50 (CK1α; [1]): > 10000 nM
- IC50 (p38α; [3]): 22 nM
- effect on fusion index / myotube fusion (primary FSHD cells): inhibited the fusion index

Compound: CC1(C)CN(c2ccc3nc(-c4ccccc4)c(-c4ccncc4)n3n2)CCN1 [Nr. 10]
- EC50 (DUX4; [4]): 10 nM
- EC50 (DUX4; [5]): 10 nM

Compound: c1ccc(-c2nc3ccc(N4CCNCC4)nn3c2-c2ccncc2)cc1 [Nr. 12]
- EC50 (DUX4; [4]): 50 nM
- EC50 (DUX4; [5]): 50 nM

Compound: CC1(C)CN(c2ccc3nc(-c4ccc(F)cc4)c(-c4ccncc4)n3n2)CCN1 [Nr. 1]
- IC50 (CK1α; Table 3, read-out: CK1 a IC50): 29.5 nM
- IC50 (CK1α; Table 4, read-out: CK1 a IC50): 29.5 nM
- IC50 (CK1α; Table 6, read-out: IC50 CK1α): 29 nM
- IC50 (p38α; Table 3, read-out: p38a IC50): 13.2 nM
- IC50 (p38α; Table 4, read-out: p38a IC50): 13.2 nM
- IC50 (CK1ε; Table 3): 12.4 nM
- IC50 (CK1ε; Table 4): 12.4 nM
- EC50 (DUX4; 15 h, Table 3, 15 h treatment protocol, primary FSHD cells, read-out: EC50 for DUX4 repression): 40 nM
- EC50 (DUX4; [4]): 40 nM
- EC50 (DUX4; [5]): 40 nM
- IC50 (CK1δ; Table 3, read-out: CK1 d IC50): 18.5 nM
- IC50 (CK1δ; Table 4, read-out: CK1 d IC50): 18.5 nM
- IC50 (CK1δ; Table 6, read-out: IC50 CK1δ): 18 nM

Compound: CN1CCN(c2ccc3nc(-c4ccc(F)cc4)c(-c4ccncc4)n3n2)CC1 [Nr. 2]
- IC50 (CK1α; Table 4, read-out: CK1 a IC50): 65 nM
- IC50 (CK1α; Table 6, read-out: IC50 CK1α): 65 nM
- IC50 (p38α; Table 4, read-out: p38a IC50): 23 nM
- IC50 (p38α; Table 6, read-out: IC50 p38α): 23 nM
- EC50 (DUX4; [4]): 340 nM
- EC50 (DUX4; [5]): 340 nM
- IC50 (CK1δ; Table 4, read-out: CK1 d IC50): 29 nM
- IC50 (CK1δ; Table 6, read-out: IC50 CK1δ): 29 nM

Compound: Cn1cc(-c2ccnc3c2C(=O)N(C2CCOCC2)C3)c(-c2ccc(F)cc2)n1 [Nr. 6]
- IC50 (CK1ε; Table 3): 72.4 nM
- IC50 (CK1ε; Table 4): 72.4 nM
- EC50 (DUX4; [4]): 8100 nM
- EC50 (DUX4; [5]): 8100 nM

Compound: Fc1ccc(-c2nc3sc(N4CCNCC4)nn3c2-c2ccncc2)cc1 [Nr. 24]
- IC50 (CK1α; Table 4, read-out: CK1 a IC50): 331 nM
- IC50 (CK1α; Table 6, read-out: IC50 CK1α): 331 nM
- IC50 (p38α; Table 4, read-out: p38a IC50): 21.7 nM
- IC50 (p38α; Table 6, read-out: IC50 p38α): 22 nM
- EC50 (DUX4; [4]): 480 nM
- EC50 (DUX4; [5]): 480 nM
- IC50 (CK1δ; Table 4, read-out: CK1 d IC50): 55.7 nM
- IC50 (CK1δ; Table 6, read-out: IC50 CK1δ): 58 nM

Compound: Cn1cc(-c2ccncc2)c(-c2ccc(F)cc2)n1 [Nr. 17]
- IC50 (CK1α; Table 4, read-out: CK1 a IC50): 873 nM
- IC50 (CK1α; Table 6, read-out: IC50 CK1α): 873 nM
- IC50 (p38α; Table 4, read-out: p38a IC50): 63.2 nM
- IC50 (p38α; Table 6, read-out: IC50 p38α): 63 nM
- EC50 (DUX4; [4]): 2900 nM
- EC50 (DUX4; [5]): 2900 nM
- IC50 (CK1δ; Table 4, read-out: CK1 d IC50): 36.1 nM
- IC50 (CK1δ; Table 6, read-out: IC50 CK1δ): 36 nM

Compound: Cn1c(=O)c(Oc2ccc(F)cc2F)cc2cnc(NC(CCO)CCO)nc21 [Pamapimod, reference compound]
- IC50 (CK1α; [1]): > 10000 nM

More lines, main results first:

- IC50 (p38α; Table 3, read-out: p38a IC50): 32.4 nM
- IC50 (p38α; Table 4, read-out: p38a IC50): 32.4 nM
- EC50 (DUX4; [4]): 760 nM
- EC50 (DUX4; [5]): 760 nM
Compound: Nc1nccc(-c2c(-c3ccc(F)cc3)ncn2C2CCCCC2)n1 [PF-670462, reference compound]
- effect on DUX4 (DUX4; 72 h treatment): repress DUX4

- IC50 (CK1α; [1]): > 10000 nM
Compound: NC(=O)c1ccc(N(C(N)=O)c2c(F)cccc2F)nc1-c1ccc(F)cc1F [VX702, 2-(2,4-difluorophenyl)-6-(1-(2,6-difluoropheny)ureido)nicotinamide, reference compound]

- IC50 (CK1α; [1]): > 10000 nM
Compound: C[C@@H]1CN(Cc2ccc(F)cc2)[C@@H](C)CN1C(=O)c1cc2c(C(=O)C(=O)N(C)C)cn(C)c2cc1Cl [SCIO469, reference compound]

- IC50 (CK1α; [1]): > 10000 nM
Compound: CCCNC(=O)c1cn2ncnc(Nc3cc(C(=O)NC4CC4)ccc3C)c2c1C [BMS-582949, reference compound]

- IC50 (CK1α; [1]): > 10000 nM
- IC50 (p38α; [3]): 11 nM
Compound: Cc1cc(F)ccc1-c1nc(NC(CO)CO)nc2c1ccc(=O)n2-c1c(F)cccc1F [SB-681323, reference compound]
- effect on fusion index / myotube fusion (primary FSHD cells): inhibited the fusion index
